Results published in PubChem BioAssay (NCI).
“And” between values parts separate entries of the source, which are not always exact repeats. Identical values can stand only once.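 Interpolation was linear, between the two tested concentrations surrounding the appropriate level; five concentrations were tested over 48 hours in 96-well plates. At the GI50, growth is halved. TGI marks complete inhibition of growth.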

Key:
Assay in all cases: NCI tumour cell line growth inhibition, 48 h
NCI-H23 lung = tested on: NCI-H23 lung
BT-549 breast = tested on: BT-549 breast
NCI/ADR-RES ovarian = tested on: NCI/ADR-RES ovarian
HCT-116 colon = tested on: HCT-116 colon
SR leukemia = tested on: SR leukemia
UACC-257 melanoma = tested on: UACC-257 melanoma
HT29 colon = tested on: HT29 colon
HCC-2998 colon = tested on: HCC-2998 colon
KM12 colon = tested on: KM12 colon
UACC-62 melanoma = tested on: UACC-62 melanoma
CCRF-CEM leukemia = tested on: CCRF-CEM leukemia
NCI-H460 lung = tested on: NCI-H460 lung
MDA-MB-231 breast = tested on: MDA-MB-231 breast
COLO 205 colon = tested on: COLO 205 colon
M14 melanoma = tested on: M14 melanoma

Structure (SMILES) | TGI (NCI-H23 lung) [µM] | TGI (BT-549 breast) [µM] | TGI (NCI/ADR-RES ovarian) [µM] | TGI (HCT-116 colon) [µM] | TGI (SR leukemia) [µM] | TGI (UACC-257 melanoma) [µM] | TGI (HT29 colon) [µM] | TGI (HCC-2998 colon) | TGI (KM12 colon) [µM] | TGI (UACC-62 melanoma) [µM] | TGI (CCRF-CEM leukemia) [µM] | TGI (NCI-H460 lung) [µM] | TGI (MDA-MB-231 breast) [µM] | TGI (COLO 205 colon) [µM] | TGI (M14 melanoma) [µM] | GI50 (KM12 colon) | GI50 (COLO 205 colon) | GI50 (M14 melanoma)
COC(=O)c1ccc(/C=N/c2cc(C)nn2-c2ccccc2)cc1 | > 100 | > 100 | > 100 | > 100 | > 100 | 20.4 | 92.1 | 8.05 µM | > 100 | > 100 | > 100 | 37.3 | > 100 | 43 | > 100 | – | – | –
COc1ccc(-c2c(N)n(-c3cc(OC)cc(OC)c3)c(=O)c3cc([N+](=O)[O-])ccc23)cc1 | > 100 | > 93.6 | > 100 | > 100 | > 100 | > 100 | > 100 | > 100 µM | > 100 | > 100 | > 100 | > 100 | > 100 | > 100 | > 100 | – | – | –
COC(=O)c1c(C)cccc1C1CN=NC12Cc1c(C)cccc1C2=O (stereo not drawn) | > 100 | > 100 | > 100 | > 100 | > 100 | > 100 | > 100 | > 100 µM | > 100 | > 100 | > 100 | > 100 | > 100 | > 100 | > 100 | – | – | –
N#CC1(C#N)C(c2ccccc2)NC23CCCCC2C1(C#N)C(=O)N3 (stereo not drawn) | > 100 | > 100 | > 100 | > 100 | > 100 | > 100 | > 100 | > 100 µM | > 100 | > 100 | > 100 | > 100 | > 100 | > 100 | > 100 | – | – | –
CNC(=O)OC(C)CN1c2ccccc2Sc2ccccc21 (stereo not drawn) | > 100 | > 100 | > 100 | > 100 | > 100 | > 100 | > 100 | > 100 µM | > 100 | > 100 | > 100 | > 100 | > 100 | > 100 | > 100 | – | – | –
CCCCC/C=C1\CCC(CN2CCOCC2)C1=O (stereo not drawn) | 29.8 | 32.3 | 54.6 | 54.9 | 12.1 | 24.5 | 35.7 | 27.7 µM | 10.7 | 28.5 | 29.9 | 49.8 | > 23.2 | 13.7 | 16.9 | – | – | –
COc1ccc(C(=O)N=C2N(c3ccccc3)C(=Nc3ccccc3)C(=Nc3ccccc3)N2c2ccccc2)cc1 | > 100 | > 58.2 | > 100 | > 100 | > 100 | > 100 | > 100 | > 100 µM | > 100 | > 100 | > 100 | > 100 | > 100 | > 100 | > 65.2 | – | – | –
Cc1ccc(-c2n[nH]c(=O)n2N)cc1 | > 100 | > 100 | > 100 | > 100 | > 100 | > 100 | > 100 | > 100 µM | > 100 | > 100 | > 100 | > 100 | > 100 | > 100 | > 100 | – | – | –
O=C1c2ccccc2C(=O)c2[nH]c(=O)c(/C=N/Nc3ccc([N+](=O)[O-])cc3)nc21 | 3.79 | 20.4 | > 61.6 | > 73.1 | > 65.2 | 5.88 | > 21.5 | 4.78 µM | > 100 | 4.16 | > 100 | 4.18 | > 51.6 | 75.6 | 5.01 | – | – | –
S=C(NNC1=NCCCCN1)Nc1ccccc1 | > 100 | > 100 | > 100 | 65.8 | > 100 | > 100 | > 100 | > 100 µM | > 100 | > 100 | > 100 | > 100 | > 100 | > 100 | > 100 | – | – | –
O=C(/C=C/c1ccc(O)c(O)c1)Oc1ccccc1 | 46.2 | 53.6 | 43.5 | 34.6 | 24.8 | > 81.8 | 48.8 | > 58.8 µM | 40.4 | 35.9 | 42.8 | 51 | 61.8 | 29.2 | 55.2 | – | – | –
CC(C)C(OC(=O)c1cc(NC(=S)c2ccccc2)ccc1Cl)C(C)C | 35.7 | 91.1 | > 100 | 40.8 | > 60.8 | 58.5 | 34.4 | > 53.1 µM | 39.6 | 38.9 | > 96.7 | 47.4 | 57.4 | 41.7 | > 84.8 | – | – | –
c1csc(-c2cc(-c3ccsc3)c(-c3cccs3)s2)c1 | > 100 | > 100 | > 100 | > 100 | > 100 | > 100 | > 100 | > 100 µM | > 100 | > 100 | > 100 | > 100 | > 100 | 82.5 | > 100 | – | – | –
COC(=O)[C@@H]1C[C@H]2[C@H](c3ccccc3Br)[C@@H](OC(C)=O)[C@@H](OCc3ccccc3)ON2O1 | > 100 | > 100 | > 100 | > 100 | > 100 | > 100 | > 100 | > 100 µM | > 100 | > 100 | > 100 | > 100 | > 100 | > 100 | > 100 | – | – | –
C/C(=N/NC(=S)Nc1cccc(Cl)c1)c1cccc(/C(C)=N\NC(=S)Nc2cccc(Cl)c2)n1 | > 38.5 | > 100 | > 100 | > 35.4 | 4.56 | 56 | > 42.4 | > 100 µM | > 100 | 16.4 | 16.2 | > 44.7 | > 100 | > 100 | 7.76 | – | – | –
COc1cc(C(CN)N(C)C)cc(OC)c1OC (stereo not drawn) | > 100 | > 100 | > 100 | > 100 | > 100 | > 100 | > 100 | > 100 µM | > 100 | > 100 | > 100 | > 100 | > 100 | > 100 | > 100 | – | – | –
O=C(Nc1ccccc1)N1CC(CN2CCN(c3ccccc3)CC2)OC1=O (stereo not drawn) | > 100 | > 100 | > 100 | > 100 | > 100 | > 100 | > 100 | > 100 µM | > 100 | > 100 | > 100 | > 100 | > 100 | > 100 | > 100 | – | – | –
O=C(CCNC(=O)OCc1ccccc1)OCCCNC(=O)OCc1ccccc1 | > 100 | > 100 | > 100 | > 100 | > 100 | > 100 | > 100 | > 100 µM | > 100 | > 100 | > 100 | > 100 | > 100 | > 100 | > 100 | – | – | –
CNC(=S)N/N=C(\C)c1ccc(OC)cc1O | > 100 | > 100 | > 100 | > 100 | > 100 | > 100 | > 100 | > 100 µM | > 100 | > 100 | > 100 | > 100 | > 100 | > 100 | > 100 | – | – | –
CC(=O)OCC1OC(Sc2nc(-c3ccc(C)cc3)c(C#N)c(=O)n2C2OC(COC(C)=O)C(OC(C)=O)C(OC(C)=O)C2OC(C)=O)C(OC(C)=O)C(OC(C)=O)C1OC(C)=O (stereo not drawn) | > 100 | > 100 | > 100 | > 100 | > 100 | > 100 | > 100 | > 100 µM and 33.2 µM | > 100 | > 100 | > 100 | > 100 | > 100 | > 100 | > 100 | > 100 µM and 38.7 µM | > 100 µM and 10.3 µM | > 100 µM and 43.3 µM
